Data published in patent US6982348B2, “Aminoethanol derivatives” (Takeda Pharmaceutical Company Limited, priority 2001, dated 2006).
Where a name gives a salt, the structure may show the parent alone.

Row | Structure (SMILES) | melting point [°C]
1 | O=C(N[C@H](Cc1ccc(C(F)(F)F)cc1)[C@@H](O)c1ccc(F)cc1)c1cc(Cl)cc2ccccc12 (racemic) [Example 76, 3-chloro-N-[(1RS,2SR)-2-(4-fluorophenyl)-2-hydroxy-1-[4-(trifluoromethyl)benzyl]ethyl]naphthalene-1-carboxamide] | 220 to 221
2 | O=C(N[C@H](Cc1ccc(OC(F)(F)F)cc1)[C@@H](O)c1ccc(F)cc1)c1ccc(F)c2ccccc12 (racemic) [Example 134, 4-fluoro-N-[(1RS,2SR)-2-(4-fluorophenyl)-2-hydroxy-1-[4-(trifluoromethoxy)benzyl]ethyl]naphthalene-1-carboxamide] | 230 to 231
3 | CCOC(=O)N[C@H](Cc1ccc(C(F)(F)F)cc1)[C@@H](O)c1ccc(F)cc1 (racemic) [Example 115, ethyl N-[(1RS,2SR)-2-(4-fluorophenyl)-2-hydroxy-1-[4-(trifluoromethyl)benzyl]ethyl]carbamate] | 143 to 144
4 | O=C(N[C@H](Cc1cccc(OC(F)(F)C(F)F)c1)[C@@H](O)c1cccc(OCc2ccccc2)c1)c1cccc2c1C=CCCC2 (racemic) [Example 240, N-{(1RS,2SR)-2-[3-(benzyloxy)phenyl]-2-hydroxy-1-[3-(1,1,2,2-tetrafluoroethoxy)benzyl]ethyl}-6,7-dihydro-5H-benzo[a][7]annulene-1-carboxamide] | 128 to 129
5 | O=C(N[C@H](Cc1ccc(C(F)(F)F)cc1)[C@@H](O)c1ccc(F)cc1)c1ccc(Cl)c2ccccc12 (racemic) [Example 34, 4-chloro-N-[(1RS,2SR)-2-(4-fluorophenyl)-2-hydroxy-1-[4-(trifluoromethyl)benzyl]ethyl]naphthalene-1-carboxamide] | 222 to 223
6 | COc1ccc(C(=O)N[C@H](Cc2ccc(C(F)(F)F)cc2)[C@@H](O)c2ccc(F)cc2)cc1 (racemic) [Example 60, N-((1RS,2SR)-2-(4-fluorophenyl)-2-hydroxy-1-((4-(trifluoromethyl)phenyl)methyl)ethyl)-4-(methyloxy)benzamide] | 192 to 193
7 | CC(C)(C)OC(=O)N[C@H](Cc1cccc(OC(F)(F)C(F)F)c1)[C@@H](O)c1ccc(F)cc1 (racemic) [Example 130, tert-butyl N-[(1RS,2SR)-2-(4-fluorophenyl)-2-hydroxy-1-[3-(1,1,2,2-tetrafluoroethoxy)benzyl]ethyl]carbamate] | 145 to 146
8 | COC(=O)c1ccc([C@@H](O)[C@H](Cc2cccc(OC(F)(F)C(F)F)c2)NC(=O)OC(C)(C)C)cc1 (racemic) [Example 308, methyl 4-[(1RS,2SR)-2-[(tert-butoxycarbonyl)amino]-1-hydroxy-3-[3-(1,1,2,2-tetrafluoroethoxy)phenyl]propyl]benzoate] | 148 to 150
9 | O=C(O)CCC(=O)O[C@H](c1ccc(F)cc1)[C@H](Cc1cccc(OC(F)(F)C(F)F)c1)NC(=O)c1cccc2c1C=CCCC2 (racemic) (as salt: succinate) [Example 384, (1RS,2SR)-2-[(6,7-dihydro-5H-benzo[a]cyclohepten-1-ylcarbonyl)amino]-1-(4-fluorophenyl)-3-[3-(1,1,2,2-tetrafluoroethoxy)phenyl]propyl hydrogen succinate] | 154 to 155
10 | Cc1oc(C(C)C)c(C(=O)N[C@H](Cc2ccc(C(F)(F)F)cc2)[C@@H](O)c2ccc(F)cc2)c1-c1ccc(F)cc1 (racemic) [Example 73, 4-(4-fluorophenyl)-N-[(1RS,2SR)-2-(4-fluorophenyl)-2-hydroxy-1-[4-(trifluoromethyl)benzyl]ethyl]-5-methyl-2-(1-methylethyl)furan-3-carboxamide] | 134 to 136
11 | O=C(N[C@H](Cc1cccc(OC(F)(F)C(F)F)c1)[C@@H](O)c1ccc(F)cc1)c1cccc2c(F)cccc12 (racemic) [Example 334, 5-fluoro-N-[(1RS,2SR)-2-(4-fluorophenyl)-2-hydroxy-1-[3-(1,1,2,2-tetrafluoroethoxy)benzyl]ethyl]naphthalene-1-carboxamide] | 178 to 180
12 | O=C(Nc1cccc2ccccc12)N[C@H](Cc1ccc(C(F)(F)F)cc1)[C@@H](O)c1ccc(F)cc1 (racemic) [Example 118, N-((1RS,2SR)-2-(4-fluorophenyl)-2-hydroxy-1-((4-(trifluoromethyl)phenyl)methyl)ethyl)-N′-(1-naphthalenyl)urea] | 222 to 223
13 | COc1ccc(C(=O)N[C@H](Cc2ccc(C(F)(F)F)cc2)[C@@H](O)c2ccc(F)cc2)c2ccccc12 (racemic) [Example 101, N-[(1RS,2SR)-2-(4-fluorophenyl)-2-hydroxy-1-[4-(trifluoromethyl)benzyl]ethyl]-4-methoxynaphthalene-1-carboxamide] | 227 to 228
14 | O=C(N[C@H](Cc1ccc(C(F)(F)F)cc1)[C@@H](O)c1ccc(F)cc1)c1ccc(Br)c2ccccc12 (racemic) [Example 43, 4-bromo-N-[(1RS,2SR)-2-(4-fluorophenyl)-2-hydroxy-1-[4-(trifluoromethyl)benzyl]ethyl]naphthalene-1-carboxamide] | 229 to 231
15 | O=C(CCCc1cccs1)NC(Cc1ccc(C(F)(F)F)cc1)C(O)c1ccc(F)cc1 (racemic) [Example 4, N-(2-(4-fluorophenyl)-2-hydroxy-1-((4-(trifluoromethyl)phenyl)methyl)ethyl)-4-(2-thienyl)butyramide] | 123 to 124
16 | COCc1oc(-c2ccccc2)c(C(=O)N[C@H](Cc2ccc(C(F)(F)F)cc2)[C@@H](O)c2ccc(F)cc2)c1-c1ccc(F)cc1 (racemic) [Example 91, 4-(4-fluorophenyl)-N-[(1RS,2SR)-2-(4-fluorophenyl)-2-hydroxy-1-[4-(trifluoromethyl)benzyl]ethyl]-5-[(methoxy)methyl]-2-phenylfuran-3-carboxamide] | 204 to 206
17 | O=C(N[C@H](Cc1ccc(C(F)(F)F)cc1)[C@@H](O)c1cccc2ccccc12)c1cccc2ccccc12 (racemic) [Example 185, N-((1RS,2SR)-2-hydroxy-2-(1-naphthalenyl)-1-((4-(trifluoromethyl)phenyl)methyl)ethyl)-1-naphthalenecarboxamide] | 217 to 218
18 | O=C(N[C@H](Cc1cccc(OC(F)(F)C(F)F)c1)[C@@H](O)c1ccc(-c2ccccc2)nc1)c1cccc2c1C=CCCC2 (racemic) [Example 330, N-[(1RS,2SR)-2-hydroxy-2-(6-phenylpyridin-3-yl)-1-[3-(1,1,2,2-tetrafluoroethoxy)benzyl]ethyl]-6,7-dihydro-5H-benzo[a]cycloheptene-1-carboxamide] | 174 to 175

The remaining lines, values ahead:

Row | melting point [°C] | Structure (SMILES)
19 | 210 to 211 | COc1ccc(C[C@@H](NC(=O)c2ccc(F)c3ccccc23)[C@@H](O)c2ccc(F)cc2)cc1 (racemic) [Example 149, 4-fluoro-N-((1RS,2SR)-2-(4-fluorophenyl)-2-hydroxy-1-((4-(methyloxy)phenyl)methyl)ethyl)-1-naphthalenecarboxamide]
20 | 196 to 197 | CN(C(=O)c1cccc2ccccc12)[C@H](Cc1ccc(C(F)(F)F)cc1)[C@@H](O)c1ccc(F)cc1 (racemic) [Example 121, N-((1RS,2SR)-2-(4-fluorophenyl)-2-hydroxy-1-((4-(trifluoromethyl)phenyl)methyl)ethyl)-N-methyl-1-naphthalenecarboxamide]
21 | 217 to 218 | O=C(N[C@H](Cc1ccc(C(F)(F)F)cc1)[C@@H](O)c1ccccc1)c1ccc(F)c2ccccc12 (racemic) [Example 174, 4-fluoro-N-((1RS,2SR)-2-hydroxy-2-phenyl-1-((4-(trifluoromethyl)phenyl)methyl)ethyl)-1-naphthalenecarboxamide]
22 | 202 to 203 | O=C(N[C@H](Cc1ccc(C(F)(F)F)cc1)[C@@H](O)c1ccc(F)cc1)c1ccc(F)cc1 (racemic) [Example 55, 4-fluoro-N-((1RS,2SR)-2-(4-fluorophenyl)-2-hydroxy-1-((4-(trifluoromethyl)phenyl)methyl)ethyl)benzamide]
23 | 120 to 121 | O=C(N[C@H](Cc1cccc(Oc2ccccc2)c1)[C@@H](O)c1ccc(F)cc1)c1ccc(F)c2ccccc12 (racemic) [Example 160, 4-fluoro-N-((1RS,2SR)-2-(4-fluorophenyl)-2-hydroxy-1-((3-(phenyloxy)phenyl)methyl)ethyl)-1-naphthalenecarboxamide]
24 | 159 to 160 | CC(C)c1cccc(C[C@@H](NC(=O)c2ccc(F)c3ccccc23)[C@@H](O)c2ccc(F)cc2)c1 (racemic) [Example 324, 4-fluoro-N-[(1RS,2SR)-2-(4-fluorophenyl)-2-hydroxy-1-(3-isopropylbenzyl)ethyl]naphthalene-1-carboxamide]
25 | 158 to 159 | CC(C)(C)OC(=O)N[C@H](Cc1ccc(C(F)(F)F)cc1)[C@@H](O)c1ccc(F)cc1 (racemic) [Example 28, 1,1-dimethylethyl (1RS,2SR)-2-(4-fluorophenyl)-2-hydroxy-1-((4-(trifluoromethyl)phenyl)methyl)ethylcarbamate]
26 | 128 to 129 | CC(C)(C)OC(=O)N[C@H](Cc1cccc(OC(F)(F)C(F)F)c1)[C@@H](O)c1ccc(F)nc1 (racemic) [Example 223, 1,1-dimethylethyl(1RS,2SR)-2-(6-fluoropyridin-3-yl)-2-hydroxy-1-((3-(1,1,2,2-tetrafluoroethoxy)phenyl)methyl)ethylcarbamate]
27 | 194 to 195 | O=C(N[C@H](Cc1ccc(C(F)(F)F)cc1)[C@@H](O)c1ccc(F)cc1F)c1ccc(F)c2ccccc12 (racemic) [Example 181, N-((1RS,2SR)-2-(2,4-difluorophenyl)-2-hydroxy-1-((4-(trifluoromethyl)phenyl)methyl)ethyl)-4-fluoro-1-naphthalenecarboxamide]
28 | 156 to 157 | O=C(N[C@H](Cc1ccc(C(F)(F)F)cc1)[C@@H](O)c1ccc(F)cc1)c1ccc(C(=O)c2ccc(F)cc2)cc1 (racemic) [Example 88, 4-(4-fluorobenzoyl)-N-[(1RS,2SR)-2-(4-fluorophenyl)-2-hydroxy-1-[4-(trifluoromethyl)benzyl]ethyl]benzenecarboxamide]
